Measured values taken from patent US20210163453A1, “DERIVATIVES OF PAPAVERINE THAT ARE EFFECTIVE HYPOXIC TUMOR RADIOSENSITIZERS” (Ohio State Innovation Foundation, priority 2018, published 2021).

Assays:
[1] = system: A549 flank xenografts; assay: Tumor growth delay of A549 flank xenografts with radiation (XRT); type: in vivo, mice
Method: Curves represent mean tumor volumes+−SEM. P values were calculated against XRT with two-tailed two-sample t test. *P<0.05; **P<0.01; ***P<0.001; ****P<0.0001; n.s., not significant.
(§1) Tumor Growth kinetics. 2×10^6 EO771 or 5×10^6 A549 cells were injected s.c. into the flanks of 6-week old female immunocompetent C57/B6 (EO771) or immunocompromised nu/nu (A549) mice. Caliper measurements of opposing diameter were used to calculate the tumor volumes. Upon reaching […], the tumors were visualized by cone beam CT and treatment plans calculated using SARRP software. X-rays were delivered with a single beam delivering 5 Gy using the Small Animal Research Radiation Platform (SARRP, Xstrahl). Tumor volumes were measured until the post treatment volume increased 3-fold. Error bars represent standard deviation.
For the test of the A549 flank tumors, the tumors were treated similarly to the breast cancer model, but 8 Gy was used, and a treatment group added consisting of 8 Gy radiotherapy followed 30 minutes later by 2 mg/kg papaverine. The reverse schedule would indicate if the drug must be present before the radiation so that it would alter the tumor metabolism to make it more susceptible to the radiotherapy.

[2] = system: model tumors grown in mice; assay: Tumor growth delay with radiation, model tumors pooled; type: in vivo; details: papaverine 30-60 minutes prior to radiation
Method: as §1
Both models of transplanted tumors that were used for the oxygenation experiments of papaverine's effect on radiation response in vivo were investigated. The murine breast cancer line EO771 that is syngeneic with the BL6 strain of mice was used and transplanted it orthotopically into the mammary fat pad of immune-competent mice. Also used was the human A549 lung adenocarcinoma line that was transplanted into the flank of immune-deficient mice. The breast cancers grew to approximately 150 mm^3 and were then randomized to receive either no treatment, a single dose of either 5 Gy, or papaverine at 2 mg/kg followed 30-40 minutes later by 5 Gy. […]

[3] = system: NDUFV1 KO NDI1 flank tumors; assay: Pimonidazole staining, NDUFV1 KO NDI1 flank tumors; type: in vivo, mice; details: 2 mg/kg PPV
Method: FIGS. 5A-5E show papaverine radiosensitizes through complex I inhibition. […] Values represent mean viable cells+−SD. […] Values are mean+−SD. […] P value was calculated with two-tailed two-sample t test. […] Curves represent mean tumor volumes+−SEM.
Pimonidazole staining. Pimonidazole adducts were visualized in hypoxic regions within histological sections of tumor tissues (Kizaka-Kondoh, S. et al. Cancer science 100, 1366-1373 (2009)). Immune-deficient mice bearing EO771 and A549 flank xenografts were treated with 2 mg/kg PPV or saline and 60 mg/kg pimonidazole administered I.P. at 30 minutes and tumors harvested at 90 minutes. Tumor sections were stained with anti-pimonidazole rabbit antisera and anti-rabbit Alexa Fluor 488 secondary antibody. The hypoxic fraction of each tumor was quantified by thresholding signal at 50% of the maximum signal on control sections. Area covered by pimonidazole-positive cells was evaluated from 20 images per animal and averaged. Error bars represent the standard deviation.

[4] = system: C57BL/6 mice; assay: Acute toxicity, IV to isoflurane-anesthetized mice
Method: Bar graphs represent the mean area covered by pimonidazole-positive cells evaluated from 20 images per animal+−standard error of the mean. P value was calculated against control with two-tailed two-sample t test. […] Mean volumes+−SEM. P values were calculated against XRT with two-tailed two-sample t test. *P<0.05; **P<0.01; ***P<0.001; ****P<0.0001; n.s., not significant.
Reducing any possible adverse effects of PPV given to cancer patients if it is being used as a radiosensitizer are needed. PDE10A inhibition can cause systemic vascular effects which can result in a drop in blood pressure and increase in heart rate as vessels become more compliant. This acute drop in blood pressure produces a physiological compensation where the individual's heart rate and breathing rate rise to maintain tissue perfusion. If the effect on systemic vasculature was too great, this could lead to cardiovascular collapse and rapid death. Acute toxicity of PPV, SMV23 and SMV32 given IV to mice under anesthesia with 2% isoflurane was determined. Isoflurane delivered in medical air was used so that the effects on tumor oxygenation was reduced, although isoflurane can depress respiration and is typically given in 100% oxygen.

[5] = system: mitochondrial function; details: cited from earlier work
[6] = system: mitochondrial complex 1; assay: Seahorse OCR inhibition of PPV derivatives, normalized to PPV; type: cell-based
Method: FIGS. 7A-7D show OCR and cellular toxicity data. […]. Bars represent mean OCR and PDE10 inhibitory activities from at least 5 (OCR) or 3 (PDE) replicates. All experiments were repeated at least twice. […] Values are mean+−SEM.
Seahorse analysis of the OCR. Oxygen consumption rate (OCR) was measured using Seahorse XF96 Flux Analyzer (Agilent Technologies). The cells were seeded to attach overnight, wells were washed with pre-warmed XF Calibrant (Agilent Technologies) and the replaced with unbuffered Assay Medium (pH 7.4, 5 mM glucose, 1 mM L-glutamine). The plates were incubated at 37° C. in a CO2-free incubator for 2 hours prior to assay. For succinate rescue assay, cells were permeabilized using XF Plasma Membrane Permeabilizer Reagent (XF PMP, Agilent Technologies) according to the manufacturer's instructions. The OCR rate was measured in 1× Mitochondrial Assay Solution (MAS) (70 mM sucrose, 220 mM mannitol, 10 mM KH2PO4, 5 mM MgCl2, 2 mM Hepes, 0.6% (w/v) fatty acid-free BSA and 1 mM EGTA; pH 7.4). After baseline oxygenation was established, 1 μM rotenone or 10 μM PPV was injected at time A, followed by 5 mM succinate at time B. Error bars represent standard deviation. For the washout experiment, EO771 cells were seeded overnight, then treated with 10 μM PPV or 1 μM rotenone 3 hours prior to OCR measurement. Media was replaced 1 and 2 hours before measurement and OCR reported.
Because PPV's effect on mitochondrial function is independent of cAMP levels it was reasoned that there are two activities in PPV, one inhibiting complex 1 and one inhibiting PDE10A that may reside in different parts of the molecule. The structure activity relationship of PPV relative to two assays was assessed: inhibition of cellular OCR by Seahorse, and inhibition of PDE10A by purified enzyme activity in multiwell plate (PDE10A activity assay kit, BPS Bioscience). Because PPV can compete with rotenone as complex 1 inhibitors, it was reasoned that they may be binding the same site and therefore the structures would be similar relative to the mitochondrial binding target. […] Because the top was a planar structure similar to that of rotenone, and they compete with each other for the same binding pocket on complex 1 (FIG. 10) the lower portion of the molecule and how it may resemble rotenone were investigated in more detail. It was established that flexible linkage was preferred for mitochondrial activity and bulky adducts to the lower benzene ring may block it (FIG. 7C). […] These lead compounds were synthesized from commercial precursors and purified on silica gel column. Structures were confirmed by ^1H NMR and found to be >95% pure by HPLC.

COc1ccc(Cc2nccc3cc(OC)c(OC)cc23)cc1OC [PPV, papaverine]
effect of drug after XRT on growth delay ([1]; 2 mg/kg after 8 Gy): did not have any effect compared to radiation alone | effect of drug before XRT on growth delay ([1]; 2 mg/kg before 8 Gy): enhances tumor growth delay | increase in tumor growth delay compared to XRT alone ([1]; 2 mg/kg before 8 Gy): greater than 3 fold | increase in tumor growth delay compared to XRT alone ([1]; 2 mg/kg before 8 Gy, listed as papaverine): 2.1-3.9 fold | increase of relative growth delay of a single dose of radiation [2]: 2-4 fold | increase of relative growth delay of a single dose of radiation ([2]; listed as papaverine): 1.9-3.9 fold | hypoxic fraction by pimonidazole [3]: no decrease of the hypoxic fraction | time to death after delivery ([4]; 6 mg/kg IV bolus): ≤ 5 min | Survivors ([4]; 6 mg/kg IV, 2% isoflurane in medical air): 0/3 | acute toxicity ([4]; rapid 6 mg/kg IV bolus, isoflurane-anesthetized mice): toxic, with significant gasping of mice, convulsions and death | growth of cells in media containing only galactose [5]: slow the growth of cells

COc1cc2ccnc(Cc3cccc4ccccc34)c2cc1OC [SMV-32]
activity in cellular OCR assay ([6]; Seahorse): approaching that of rotenone | Inhibitory activity OCR % of PPV ([6]; Seahorse, OCR inhibition at 10 μM concentration, normalized to PPV): 159.3 % of PPV | complex 1 activity compared to PPV ([6]; compared to PPV): 160%
